Values of other authors in patent publication US20200392071A1, “Gene cluster for the biosynthetic production of tetracycline compounds in a heterologous host” (HELMHOLTZ-ZENTRUM FÜR INFEKTIONSFORSCHUNG GMBH, priority 2017, published 2020).

Columns and labels:
[1] = test system: tetracycline-resistant pathogens; conditions: Proctor et al. 1978
Gram-negative pathogens = conditions: patients with urinary tract infections caused by Gram-negative pathogens; Molnar et al. 1977

## CC(=O)C1=C(O)C(N)C2Cc3c(c(O)c4c(O)c(C)ccc4c3C)C(=O)C2(O)C1=O (centres unmarked) [chelocardin, Chelocardin]
[1]
  activity against tetracycline-resistant pathogens: active
Gram-negative pathogens
  outcome in a small phase II clinical study: promising
